{
  "source": "patent US20220411525A1",
  "about": "“BCMA AS A TARGET FOR T CELL REDIRECTING ANTIBODIES IN B CELL LYMPHOMAS” (Janssen Pharmaceutica NV, priority 2021, published 2022)",
  "key": {"primary CLL cells [1]": {"tested_on": "primary CLL cells", "assay": "BCMA level by flow cytometry on primary CLL cells after γ-secretase inhibition", "type": "cell-based, human", "conditions": "100 nM", "experimental": "(§1) Primary CLL samples were stained for BCMA expression by flow cytometry and compared to isotype controls. […] As provided in FIG. 2A, CLL cells were cultured and basal levels of BCMA were assessed by flow cytometry and compared to isotype controls. (n=25). For FIG. 2B, CLL cells were treated for 24 or 48h with 0nM or 100 nM γ-secretase inhibitor and BCMA was assessed by flow cytometry. Values are represented as fold increase compared to medium control. (n=12-28). FIG. 2C provides basal levels of BCMA compared to isotype control among CLL patients with mutated or unmutated IgVH. (n=4-10). […] (n=4-12) The P value was calculated by Wilcoxon test (FIGS. 2A-2B), Mann Whitney test (FIGS. 2B, 2C, 2D) or paired t test (FIGS. 2E, F). […]\nFlow cytometry. […] After antibody staining, samples were washed using PBA and acquired on BD FACS Canto or LSR Fortessa flow cytometer and analysed with FlowJo v10. To quantify number of cells using flow cytometry, 123count eBeads™ Counting Beads (Thermo Fisher Scientific) according to manufacturer's instructions. BCMA molecules per cell were determined by usage of PE Phycoerythrin Fluorescence Quantitation Kit (BD Biosciences).\nBCMA characterization by flow cytometry and quantitative polymerase chain reaction. […] After 24 or 48 h BCMA was detected by flow cytometry as described above. Relative expression was calculated compared to isotype controls. […]"}, "primary CLL cells [2]": {"tested_on": "primary CLL cells", "assay": "Soluble BCMA ELISA in supernatants of CLL cells", "type": "cell-based, human", "conditions": "100 nM, 24-48 h", "experimental": "as §1, with “(n=4-10). FIG. 2D illustrates the fold increase of BCMA after 24-48 h treatment with 100nM γ-secretase inhibitor compared to medium control among CLL patients with mutated or unmutated IgVH. (n=5-13). FIG. 2E provides the results of an assessment of BCMA mRNA relative to GAPDH control by qPCR after primary CLL samples were treated without or with 100 nM γ-secretase inhibitor for 24 h. (n=9).” for “(n=4-10).”\nsBCMA ELISA. […] After 24 or 48 h supernatants were harvested and stored at −20° C. soluble BCMA (sBCMA) in supernatants were measured by ELISA using antibody pairs for BCMA."}},
  "data": [
    {"compound": "C[C@H](NC(=O)[C@@H](O)c1cc(F)cc(F)c1)C(=O)N[C@@H]1C(=O)N(C)c2ccccc2-c2ccccc21", "note": "[Ly411575]", "values": [
      {"measurement": "BCMA level on CLL cells", "setting": "primary CLL cells [1]; 24 h", "value": "small but significant upregulation of BCMA"},
      {"measurement": "BCMA level on CLL cells", "setting": "primary CLL cells [1]; 48 h, compared to 24 h", "value": "further enhanced"},
      {"measurement": "sBCMA levels in supernatants of CLL cells", "setting": "primary CLL cells [2]", "value": "marked decreases"}
    ]}
  ]
}
